# Columns and labels:
# Format in all cases: in vivo
# Downy Brome [1] = assay: post-emergence herbicide test; conditions: Bromus tectorum, post-emergence, 0.25 lb/A; read-out: % plant inhibition
# In short: (§1)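 Activity is given as percent inhibition of each species following foliar application. Pots were sprayed individually in a chamber once plants reached two to three weeks.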
# Birdseye Speedwell [2] = assay: post-emergence herbicide test; conditions: post-emergence, 0.25 lb/A; read-out: % plant inhibition
# In short: as §1
# Seedling Johnsongrass [3] = assay: post-emergence herbicide test; conditions: Sorghum halepense, post-emergence, 0.25 lb/A; read-out: % plant inhibition
# In short: as §1
# Velvetleaf [4] = assay: post-emergence herbicide test; conditions: Abutilon theophrasti, post-emergence, 0.25 lb/A; read-out: % plant inhibition
# In short: as §1
# Wheat [5] = assay: post-emergence herbicide test; conditions: Triticum aestivum, post-emergence, 0.25 lb/A; read-out: % plant inhibition
# In short: as §1
# Rape [6] = assay: post-emergence herbicide test; conditions: post-emergence, 0.25 lb/A; read-out: % plant inhibition
# In short: as §1
# Green Foxtail [7] = assay: post-emergence herbicide test; conditions: Setaria viridis, post-emergence, 0.25 lb/A; read-out: % plant inhibition
# In short: as §1
# Common Chickweed [8] = assay: post-emergence herbicide test; conditions: post-emergence, 0.25 lb/A; read-out: % plant inhibition
# In short: as §1
# Giant Foxtail [9] = assay: post-emergence herbicide test; conditions: Setaria faberi, post-emergence, 0.25 lb/A; read-out: % plant inhibition
# In short: as §1
# Barnyardgrass [10] = assay: post-emergence herbicide test; conditions: Echinochloa crus-galli, post-emergence, 0.25 lb/A; read-out: % plant inhibition
# In short: as §1
# Corn [11] = assay: post-emergence herbicide test; conditions: Zea mays, post-emergence, 0.25 lb/A; read-out: % plant inhibition
# In short: as §1
# Morning Glory [12] = assay: post-emergence herbicide test; conditions: Ipomoea, post-emergence, 0.25 lb/A; read-out: % plant inhibition
# In short: as §1
# Soybean [13] = assay: post-emergence herbicide test; conditions: Glycine max, post-emergence, 0.25 lb/A; read-out: % plant inhibition
# In short: as §1
# Cocklebur [14] = assay: post-emergence herbicide test; conditions: Xanthium strumarium, post-emergence, 0.25 lb/A; read-out: % plant inhibition
# In short: as §1
# Wild Oats [15] = assay: post-emergence herbicide test; conditions: Avena fatua, post-emergence, 0.25 lb/A; read-out: % plant inhibition
# In short: as §1
# Blackgrass [16] = assay: post-emergence herbicide test; conditions: Alopecurus myosuroides, post-emergence, 0.25 lb/A; read-out: % plant inhibition
# In short: as §1
# Bedstraw Catchweed [17] = assay: post-emergence herbicide test; conditions: Galium aparine, post-emergence, 0.25 lb/A; read-out: % plant inhibition
# In short: as §1
# Downy Brome [18] = assay: pre-emergence herbicide test; conditions: Bromus tectorum, pre-emergence, 0.25 lb/A; read-out: % plant inhibition
# In short: (§2)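 Seeds were sown on compacted topsoil in pans and covered with a topsoil layer carrying a known amount of active ingredient in acetone or water, applied before or after covering. Pans were bottom-watered on a greenhouse bench, and % inhibition was scored about 14 days after seeding and treatment.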
# Birdseye Speedwell [19] = assay: pre-emergence herbicide test; conditions: pre-emergence, 0.25 lb/A; read-out: % plant inhibition
# In short: as §2
# Seedling Johnsongrass [20] = assay: pre-emergence herbicide test; conditions: Sorghum halepense, pre-emergence, 0.25 lb/A; read-out: % plant inhibition
# In short: as §2
# Velvetleaf [21] = assay: pre-emergence herbicide test; conditions: Abutilon theophrasti, pre-emergence, 0.25 lb/A; read-out: % plant inhibition
# In short: as §2
# Wheat [22] = assay: pre-emergence herbicide test; conditions: Triticum aestivum, pre-emergence, 0.25 lb/A; read-out: % plant inhibition
# In short: as §2
# Rape [23] = assay: pre-emergence herbicide test; conditions: pre-emergence, 0.25 lb/A; read-out: % plant inhibition
# In short: as §2
# Green Foxtail [24] = assay: pre-emergence herbicide test; conditions: Setaria viridis, pre-emergence; 0.25 lb/A; read-out: % plant inhibition
# In short: as §2
# Common Chickweed [25] = assay: pre-emergence herbicide test; conditions: pre-emergence, 0.25 lb/A; read-out: % plant inhibition
# In short: as §2
# Giant Foxtail [26] = assay: pre-emergence herbicide test; conditions: Setaria faberi, pre-emergence, 0.25 lb/A; read-out: % plant inhibition
# In short: as §2
# Barnyardgrass [27] = assay: pre-emergence herbicide test; conditions: Echinochloa crus-galli, pre-emergence, 0.25 lb/A; read-out: % plant inhibition
# In short: as §2
# Corn [28] = assay: pre-emergence herbicide test; conditions: Zea mays, pre-emergence, 0.25 lb/A; read-out: % plant inhibition
# In short: as §2
# Morning Glory [29] = assay: pre-emergence herbicide test; conditions: Ipomoea, pre-emergence, 0.25 lb/A; read-out: % plant inhibition
# In short: as §2
# Soybean [30] = assay: pre-emergence herbicide test; conditions: Glycine max, pre-emergence, 0.25 lb/A; read-out: % plant inhibition
# In short: as §2
# Cocklebur [31] = assay: pre-emergence herbicide test; conditions: Xanthium strumarium, pre-emergence, 0.25 lb/A; read-out: % plant inhibition
# In short: as §2
# Wild Oats [32] = assay: pre-emergence herbicide test; conditions: Avena fatua, pre-emergence, 0.25 lb/A; read-out: % plant inhibition
# In short: as §2
# Blackgrass [33] = assay: pre-emergence herbicide test; conditions: Alopecurus myosuroides, pre-emergence, 0.25 lb/A; read-out: % plant inhibition
# In short: as §2
# Bedstraw Catchweed [34] = assay: pre-emergence herbicide test; conditions: Galium aparine, pre-emergence, 0.25 lb/A; read-out: % plant inhibition
# In short: as §2
Structure (SMILES),inhibition at 280.212 g/ha (Downy Brome [1]) [%],inhibition at 280.212 g/ha (Birdseye Speedwell [2]) [%],inhibition at 280.212 g/ha (Seedling Johnsongrass [3]) [%],inhibition at 280.212 g/ha (Velvetleaf [4]) [%],inhibition at 280.212 g/ha (Wheat [5]) [%],inhibition at 280.212 g/ha (Rape [6]) [%],inhibition at 280.212 g/ha (Green Foxtail [7]) [%],inhibition at 280.212 g/ha (Common Chickweed [8]) [%],inhibition at 280.212 g/ha (Giant Foxtail [9]) [%],inhibition at 280.212 g/ha (Barnyardgrass [10]) [%],inhibition at 280.212 g/ha (Corn [11]) [%],inhibition at 280.212 g/ha (Morning Glory [12]) [%],inhibition at 280.212 g/ha (Soybean [13]) [%],inhibition at 280.212 g/ha (Cocklebur [14]) [%],inhibition at 280.212 g/ha (Wild Oats [15]) [%],inhibition at 280.212 g/ha (Blackgrass [16]) [%],inhibition at 280.212 g/ha (Bedstraw Catchweed [17]) [%],inhibition at 280.212 g/ha (Downy Brome [18]) [%],inhibition at 280.212 g/ha (Birdseye Speedwell [19]) [%],inhibition at 280.212 g/ha (Seedling Johnsongrass [20]) [%],other results
COC(=O)CSCc1cc(-c2nn(C)c(C(F)(F)F)c2C)c(F)cc1Cl [Compound 31],55,100,90,99,20,75,75,95,50,70,50,80,35,99,35,20,70,5,25,40,inhibition at 280.212 g/ha (Velvetleaf [21]): 80%; inhibition at 280.212 g/ha (Wheat [22]): 0%; inhibition at 280.212 g/ha (Rape [23]): 5%; inhibition at 280.212 g/ha (Green Foxtail [24]): 20%; inhibition at 280.212 g/ha (Common Chickweed [25]): 25%; inhibition at 280.212 g/ha (Giant Foxtail [26]): 10%; inhibition at 280.212 g/ha (Barnyardgrass [27]): 5%; inhibition at 280.212 g/ha (Corn [28]): 10%; inhibition at 280.212 g/ha (Morning Glory [29]): 45%; inhibition at 280.212 g/ha (Soybean [30]): 3%; inhibition at 280.212 g/ha (Cocklebur [31]): 15%; inhibition at 280.212 g/ha (Wild Oats [32]): 5%; inhibition at 280.212 g/ha (Blackgrass [33]): 5%; inhibition at 280.212 g/ha (Bedstraw Catchweed [34]): 30%
"CC(C)OC(=O)c1cc(-c2nn(C)c(C(F)(F)F)c2CF)c(F)cc1Cl [Compound 15, 2-Chloro-4-fluoro-5-[4-(fluoromethyl)-1-methyl-5-(trifluoromethyl)-1H-pyrazol-3-yl]benzoic acid, 1-methylethyl ester]",100,100,100,100,20,100,100,100,90,99,65,98,90,99,100,100,100,100,100,100,inhibition at 280.212 g/ha (Velvetleaf [21]): 97%; inhibition at 280.212 g/ha (Wheat [22]): 0%; inhibition at 280.212 g/ha (Rape [23]): 60%; inhibition at 280.212 g/ha (Green Foxtail [24]): 100%; inhibition at 280.212 g/ha (Common Chickweed [25]): 100%; inhibition at 280.212 g/ha (Giant Foxtail [26]): 100%; inhibition at 280.212 g/ha (Barnyardgrass [27]): 100%; inhibition at 280.212 g/ha (Corn [28]): 93%; inhibition at 280.212 g/ha (Morning Glory [29]): 93%; inhibition at 280.212 g/ha (Soybean [30]): 20%; inhibition at 280.212 g/ha (Cocklebur [31]): 90%; inhibition at 280.212 g/ha (Wild Oats [32]): 90%; inhibition at 280.212 g/ha (Blackgrass [33]): 100%; inhibition at 280.212 g/ha (Bedstraw Catchweed [34]): 98%
Cc1c(-c2cc(C(=O)OCC3CNCCO3)c(Cl)cc2F)nn(C)c1C(F)(F)F (stereo not drawn) [Compound 47],20,95,50,100,15,65,70,95,5,5,50,70,30,100,30,20,90,20,70,50,inhibition at 280.212 g/ha (Velvetleaf [21]): 50%; inhibition at 280.212 g/ha (Wheat [22]): 0%; inhibition at 280.212 g/ha (Rape [23]): 5%; inhibition at 280.212 g/ha (Green Foxtail [24]): 100%; inhibition at 280.212 g/ha (Common Chickweed [25]): 70%; inhibition at 280.212 g/ha (Giant Foxtail [26]): 75%; inhibition at 280.212 g/ha (Barnyardgrass [27]): 75%; inhibition at 280.212 g/ha (Corn [28]): 0%; inhibition at 280.212 g/ha (Morning Glory [29]): 70%; inhibition at 280.212 g/ha (Soybean [30]): 0%; inhibition at 280.212 g/ha (Cocklebur [31]): 0%; inhibition at 280.212 g/ha (Wild Oats [32]): 5%; inhibition at 280.212 g/ha (Blackgrass [33]): 25%; inhibition at 280.212 g/ha (Bedstraw Catchweed [34]): 95%

# — patent US5672715A, “Herbicidal substituted 3-aryl-pyrazoles” (Monsanto Company, priority 1995, dated 1997)
